The values that follow come from PMC11091888, “Evaluation of Fusobacterium nucleatum Enoyl-ACP Reductase (FabK) as a Narrow-Spectrum Drug Target” (ACS Infectious Diseases, 2024).

Values after ≈ are worked out from the molar mass of the structure shown. “Also recorded” adds a separate entry of the source. Read-outs that look alike come from different tables or passages of the source. A value given as a limit tells only on which side of the number the result lay.

What is called IC50 is the midpoint of a concentration-inhibition curve.

For data set [1], the system named is F. nucleatum 23726 complementation strains. Put plainly: MIC against F. nucleatum 23726 carrying FabK alanine-132 or threonine-132 under the wild-type fabK promoter. Type of data set: cell-based. To be noted: Fusobacterium nucleatum. The method, then:
The transformation of F. nucleatum 23726 was performed via electroporation as previously described,[41] except that Columbia broth was used. (i) Antisense vector: F. nucleatum gene silencing vector, pHFK2, was developed by inserting the ATc inducible paired-termini antisense sequences from the clostridial vector pMSPT into pCWU6, a F. nucleatum vector.[56] pCWU6 was amplified by PCR (CloneAmp polymerase) and recombined with the BamHI and KpnI fragments of pMSPT containing the Tet promoter and paired-termini sequences.[26] Antisense nucleotides targeting either 50 bp upstream and downstream of the fabK start codon (FabKAS1) or 25 bp upstream and 75 bp downstream (FabKAS2) were cloned into SphI and XhoI restriction sites of pHFK2. (ii) Complementation vectors: these were generated by PCR amplifying the fabK promoter and gene and introducing KpnI and HindIII restriction sites at 5′ and 3′ ends, respectively. Purified PCR amplicons were inserted into the KpnI and HindIII sites of pCWU6. (iii) Overexpression vectors: the corresponding gene, fabK or fabX, was amplified via PCR, introducing HindIII or SacI restriction sites to the 5′ end, respectively. BamHI restriction sites were introduced to the 3′ end of both. Purified PCR amplicons were inserted into the respective restriction sites of pHFK2. (iv) Allelic exchange vector: vector, pCWU8-FabK, was generated using a previously described protocol,[41],[56] whereby 1-kb regions upstream and downstream of fabK were cloned into the suicide vector pCWU8 using a Gibson Assembly Cloning Kit (New England Biolabs). The recombinant vector was transformed into strain F. nucleatum 23726ΔgalK, and successful integrants were collected that were resistant to thiamphenicol (5 μg/mL). […]
Compounds were twofold serially diluted (100–0.2 μg/mL) across a 96-well plate in 100 μL of media used for the specific organism (Table S4). […] Plates were incubated at 37 °C for up to 48 h, and MICs were read by visual inspection.

The test system of data set [2] is F. nucleatum 23726 overexpression strains. The experiment in a line: MIC against F. nucleatum 23726 transformed with empty vector, fabK or fabX under ATc-inducible promoter. Type of data set: cell-based, Fusobacterium nucleatum. To be noted: for MIC: Fusobacterium nucleatum. On the procedure:
The transformation of F. nucleatum 23726 was performed via electroporation as previously described,[41] except that Columbia broth was used. (i) Antisense vector: F. nucleatum gene silencing vector, pHFK2, was developed by inserting the ATc inducible paired-termini antisense sequences from the clostridial vector pMSPT into pCWU6, a F. nucleatum vector.[56] pCWU6 was amplified by PCR (CloneAmp polymerase) and recombined with the BamHI and KpnI fragments of pMSPT containing the Tet promoter and paired-termini sequences.[26] Antisense nucleotides targeting either 50 bp upstream and downstream of the fabK start codon (FabKAS1) or 25 bp upstream and 75 bp downstream (FabKAS2) were cloned into SphI and XhoI restriction sites of pHFK2. (ii) Complementation vectors: these were generated by PCR amplifying the fabK promoter and gene and introducing KpnI and HindIII restriction sites at 5′ and 3′ ends, respectively. Purified PCR amplicons were inserted into the KpnI and HindIII sites of pCWU6. (iii) Overexpression vectors: the corresponding gene, fabK or fabX, was amplified via PCR, introducing HindIII or SacI restriction sites to the 5′ end, respectively. BamHI restriction sites were introduced to the 3′ end of both. Purified PCR amplicons were inserted into the respective restriction sites of pHFK2. (iv) Allelic exchange vector: vector, pCWU8-FabK, was generated using a previously described protocol,[41],[56] whereby 1-kb regions upstream and downstream of fabK were cloned into the suicide vector pCWU8 using a Gibson Assembly Cloning Kit (New England Biolabs). The recombinant vector was transformed into strain F. nucleatum 23726ΔgalK, and successful integrants were collected that were resistant to thiamphenicol (5 μg/mL). Since the suicide vector expresses GalK, which is toxic in the presence of 2-deoxy-D-galactose (2-DG), the compound 2-DG (0.25% w/v) was added to counter-select for mutants that underwent a second homologous recombination. Ten resulting colonies were then tested for deletion of fabK via PCR, using primers in Table S7. The experiment was independently performed twice for a total of 20 colonies screened for fabK deletion. All experiments were done anaerobically at 37 °C in tryptic soy broth supplemented with 1% w/v peptone and 0.25% w/v autoclaved L-cysteine hydrochloride (TSPC) or TSPC agar with thiamphenicol or 2-DG.
(§1) Compounds were twofold serially diluted (100–0.2 μg/mL) across a 96-well plate in 100 μL of media used for the specific organism (Table S4). For anaerobes, plates were incubated anaerobically at 37 °C for 1 h and then inoculated with approximately 10^5 to 10^6 CFU/well. Plates were incubated at 37 °C for up to 48 h, and MICs were read by visual inspection.

Data set [3] deals with Streptococcus sp. SPAR10. Put plainly: MIC, digestive tract panel. Type of data set: cell-based. To be noted: ENR FabK. On the procedure: as §1
Data set [4] concerns F. periodonticum 2_1_31. The experiment in a line: MIC, digestive tract panel. The settings on record: ENR FabK. Type of data set: cell-based. The method, then:
as §1

Data set [5] concerns Prevotella denticola. The experiment in a line: MIC, digestive tract panel. It counts as cell-based. The settings on record: ENR FabI. The method, then:
as §1

The test system of data set [6] is Actinomyces F0386. Put plainly: MIC, digestive tract panel. It counts as cell-based. The settings on record: Type I FAS. The method, then: as §1
Data set [7] has as its system Streptococci. Put plainly: MIC, all tested Streptococci. The settings on record: text summary of Table 4; read-out: MICs against all tested Streptococci. Type of data set: cell-based. The method, then:
as §1

Data set [8] relates to F. nucleatum 23726 mutants JR1-JR4. The experiment in a line: MIC against 681-resistant mutants of F. nucleatum 23726. Type of data set: cell-based, Fusobacterium nucleatum. The settings on record: for MIC: Fusobacterium nucleatum. On the procedure: as §1
Overnight cultures of F. nucleatum 23726 were diluted 1:50 in fresh Columbia broth, which was used to inoculate 96-well plates containing twofold serial dilutions of compound 681. After 48 h of incubation, cultures were recovered from wells one dilution below the MIC, and this was used to establish the inocula for the subsequent passage into 96-well plates containing 681. This process was repeated until cultures grew at 8× the original MIC for two consecutive passages. Cultures were then plated onto Columbia blood agar plates and incubated for 72 h at 37 °C. Single colonies were collected into Columbia broth with 0.39 μg/mL of 681 and cultured for up to 48 h and then plated onto selective Columbia blood agar plates to further purify putative 681-resistant colonies.

The nature of data set [9]: Cytotoxicity against Vero cells (resazurin viability). To be noted: monkey, Vero epithelial cells, maximum tested concentration 100 μg/mL. Type of data set: cell-based. The method, then:
This was done as described[36] using colorectal carcinoma HCT116 and Vero epithelial cells cultured at 37 °C in 5% CO2 in Dulbecco’s modified Eagle’s medium (DMEM) with 4.5 g/L glucose and L-glutamine. The medium was supplemented with 10% v/v FetalGro (Rocky Mountain Biologicals). Approximately 25,000/well were aliquoted into black 96-well plates (Greiner Bio-One) and incubated overnight, before being resuspended in DMEM supplemented with 20% Gibco KnockOut Serum Replacement (Thermo Fisher Scientific). Compounds (100–1.6 μg/mL) were then added to the cells and incubated for 24 h at 37 °C and 5% CO2. Cell viability was analyzed using resazurin as described.[36]
Background: Resazurin is reduced to fluorescent resorufin, in cell work by metabolically active cells.

The nature of data set [10]: Cytotoxicity against HCT116 cells (resazurin viability). It counts as cell-based. The settings on record: human, HCT116 colorectal carcinoma cells, maximum tested concentration 100 μg/mL. The method, then:
This was done as described[36] using colorectal carcinoma HCT116 and Vero epithelial cells cultured at 37 °C in 5% CO2 in Dulbecco’s modified Eagle’s medium (DMEM) with 4.5 g/L glucose and L-glutamine. The medium was supplemented with 10% v/v FetalGro (Rocky Mountain Biologicals). Approximately 25,000/well were aliquoted into black 96-well plates (Greiner Bio-One) and incubated overnight, before being resuspended in DMEM supplemented with 20% Gibco KnockOut Serum Replacement (Thermo Fisher Scientific). […] Cell viability was analyzed using resazurin as described.[36]

Data set [11] relates to F. nucleatum 23726. The experiment in a line: Growth in FAS-II inhibitor with or without exogenous fatty acids. It counts as cell-based, Fusobacterium nucleatum. To be noted: fatty acid mixture of Table S2. On the procedure: To plates containing twofold serial dilutions of compounds, exponential phase cultures were added to a final OD600nm of 0.1. Plates containing F. nucleatum in Columbia broth were incubated at 37 °C inside of a Tecan Infinite 200 Pro, which was inside an anaerobic chamber; growth kinetics for Streptococcus spp. in brain heart infusion broth were done aerobically in the same Tecan instrument.

Data set [12] concerns F. nucleatum 23726. Put plainly: MIC against F. nucleatum 23726. It counts as cell-based, Fusobacterium nucleatum. To be noted: Fusobacterium nucleatum, 23726, F. nucleatum 23726 wild-type; three biological replicates; read-out: MIC Fn 23726. The method, then:
as §1

In the case of `CS(=O)(=O)c1ccc2nc(NC(=O)NCc3nc(-c4ccc(Br)cc4)c[nH]3)sc2c1` [Compound 681, 1-((4-(4-bromophenyl)-1H-imidazole-2-yl)methyl)-3-(6-(methylsulfonyl)benzo[d]thiazol-2-yl)urea], the MIC in data set [1] (read-out: MIC, empty vector control) is 0.6 µg/mL; in data set [1] (read-out: MIC, threonine-132 FabK mutant), 2.5 to 5 µg/mL; in data set [1] (read-out: MIC, wild-type FabK (alanine-132)), 1.3 µg/mL; in [2] (read-out: MIC, FabK overexpression, induced), over 100 µg/mL; in data set [2] (read-out: MIC, FabK overexpression, uninduced), 0.8 µg/mL; in data set [2] (read-out: MIC, FabX overexpression, induced), 3.1 µg/mL. Also, the MIC is 0.8 µg/mL in [2] (read-out: MIC, FabX overexpression, uninduced); 0.4 µg/mL in data set [2] (read-out: MIC, empty vector, induced); 0.8 µg/mL in data set [2] (read-out: MIC, empty vector, uninduced); under 1.6 µg/mL in [3]; 0.8 µg/mL (≈ 1.58 µM) in data set [4]; over 100 µg/mL in data set [5]. In addition, the MIC in [6] was over 100 µg/mL; in data set [7] it was under 1.6 µg/mL; in data set [8] (read-out: MIC against mutant JR2), 6.3 µg/mL (≈ 12.4 µM); in [8] (read-out: MICs against mutants JR1-JR4) it was 3.1 to 12.5 µg/mL (≈ 6.12 to 24.7 µM); in data set [12], 0.4 µg/mL (≈ 0.79 µM). In data set [2] (F. nucleatum 23726 pTET-fabK, 62.5 ng/mL ATc), the “MIC, FabK overexpression, induced” value was over 100 µg/mL. In addition, in data set [8] (12 bp deletion upstream of fabX), the “MIC against mutant JR2” value was determined as 3.1 µg/mL (≈ 6.12 µM). The “MIC against mutant JR3” value in data set [8] (fabK TSS + 1: C > T) is 3.1 µg/mL. The IC50 at 24 h in data set [9] and in data set [10] was over 100 µg/mL throughout. In [11], the “Effect of exogenous fatty acids on growth inhibition of F. nucleatum” value is listed as “did not attenuate; also recorded: did not rescue”.
